Experimental data taken from patent publication US20230151363A1, “MODIFIED SHORT-INTERFERING RNA COMPOSITIONS AND THEIR USE IN THE TREATMENT OF CANCER” (THE RESEARCH FOUNDATION FOR THE STATE UNIVERSITY OF NEW YORK, priority 2020, published 2023).

Tested on: BCL-2 protein
Assay: Western immunoblot analysis of BCL-2 protein
Assay type: cell-based, human
Conditions: cancer cells treated with 5-FU alone
Description: Western immunoblot analysis. Twenty-four hours prior to transfection 1×10^5 cells were plated in 6 well plates. Cells were either transfected using Oligofectamine (Thermo Fischer) or no transfection vehicle, with 50 nM control (scrambled) siRNA (Thermo Fischer), unmodified siBCL2 or an exemplary modified siBCL2 siRNA. Three days following transfection protein was collected in RIPA buffer with protease inhibitor (Sigma). Equal amounts of protein (15 μg), were separated on 12% sodium dodecyl sulfate-polyacrylamide gels as described in Laemmli U K. Nature. 1970; 227(5259) pp. 680-685, the entire contents of which is incorporated herein by reference. Proteins were probed with anti-BCL2 antibody (1:1000) (Thermo Fischer) and anti-GAPDH antibody (1:100000) (Santa Cruz). Horseradish peroxidase conjugated secondary antibodies against mouse or rabbit (1:5000, Santa Cruz Biotech Inc.) were added. Protein bands were then visualized with autoradiography film using SuperSignal West Pico Chemiluminescent Substrate (Thermo Fischer).

O=c1[nH]cc(F)c(=O)[nH]1 [5-FU, 5-fluoro-1H-pyrimidine-2,4-dione]
BCL-2 expression (Western blot): does not result in reduction of BCL-2 expression
